A word on the IC50: it is the concentration needed to halve the response being measured. The term Ki denotes a dissociation constant, usually derived from enzyme kinetics or from competition with a known ligand.

Experimental findings from ChEMBL document CHEMBL1159070, “Synthesis and disulfide bond connectivity-activity studies of a kalata B1-inspired cyclopeptide against dengue NS2B-NS3 protease” (Bioorg Med Chem, 2010) are described below.

Calls of active or inactive are those of the source. No cut-off for these calls is given here.

Test [1] can be described thus: (§1) Inhibition of Dengue virus 2 recombinant NS2B/3 protease expressed in Escherichia coli BL21(DE3) assessed as Dabcyl-KGRRSSKL-Edans substrate cleavage by fluorimetry. Further details: species or system dengue virus type 2.
For test [2], the system named is dengue virus type 2. Described as §1.

On to `CC(C)C[C@@H]1NC(=O)CNC(=O)[C@H](CCCNC(=N)N)NC(=O)[C@H](CCCNC(=N)N)NC(=O)[C@H]([C@@H](C)O)NC(=O)[C@@H]2CSSC[C@H](NC(=O)[C@H](C(C)C)NC(=O)[C@@H]3CCCN3C1=O)C(=O)NCC(=O)N[C@@H](CO)C(=O)N[C@@H](CCC(=O)O)C(=O)N[C@@H](CCC(=O)O)C(=O)N[C@@H](CO)C(=O)N[C@@H](CCCNC(=N)N)C(=O)N[C@@H](CCCNC(=N)N)C(=O)NCC(=O)N[C@H]1CSSC[C@H](NC(=O)CNC(=O)[C@@H]3CCCN3C(=O)[C@H]([C@@H](C)O)NC(=O)[C@@H](N)CC(=O)NC1=O)C(=O)N[C@@H](CCCNC(=N)N)C(=O)N[C@@H](CCCNC(=N)N)C(=O)N[C@@H](CO)C(=O)N[C@@H](Cc1c[nH]c3ccccc13)C(=O)N1CCC[C@H]1C(=O)N[C@@H](C(C)C)C(=O)N2`, for which, in test [1], the IC50 amounted to 9.3 µM and the Ki stood at 3.03 µM.

Regarding `CC(C)C[C@@H]1NC(=O)CNC(=O)[C@H](CCCNC(=N)N)NC(=O)[C@H](CCCNC(=N)N)NC(=O)[C@H]([C@@H](C)O)NC(=O)[C@H](CS)NC(=O)[C@H](C(C)C)NC(=O)[C@@H]2CCCN2C(=O)[C@H](Cc2c[nH]c3ccccc23)NC(=O)[C@H](CO)NC(=O)[C@H](CCCNC(=N)N)NC(=O)[C@H](CCCNC(=N)N)NC(=O)[C@H](CS)NC(=O)CNC(=O)[C@H]2CCCN2C(=O)[C@H]([C@@H](C)O)NC(=O)[C@@H](N)CC(=O)NC(=O)[C@H](CS)NC(=O)CNC(=O)[C@H](CCCNC(=N)N)NC(=O)[C@H](CCCNC(=N)N)NC(=O)[C@H](CO)NC(=O)[C@H](CCC(=O)O)NC(=O)[C@H](CCC(=O)O)NC(=O)[C@H](CO)NC(=O)CNC(=O)[C@H](CS)NC(=O)[C@H](C(C)C)NC(=O)[C@@H]2CCCN2C1=O`, the outcome in test [2] was Active.

For the compound `CC(C)C[C@@H]1NC(=O)CNC(=O)[C@H](CC(N)=O)NC(=O)[C@H](CCCNC(=N)N)NC(=O)[C@H]([C@@H](C)O)NC(=O)[C@H](CS)NC(=O)[C@H](C(C)C)NC(=O)[C@@H]2CCCN2C(=O)[C@H](CCC(=O)O)NC(=O)[C@H](CO)NC(=O)[C@H](CS)NC(=O)[C@H]([C@@H](C)O)NC(=O)[C@H](CS)NC(=O)CNC(=O)[C@@H]2CCCN2C(=O)[C@H]([C@@H](C)O)NC(=O)[C@H](CC(N)=O)NC(=O)[C@H](CS)NC(=O)[C@H]([C@@H](C)O)NC(=O)CNC(=O)CNC(=O)[C@H](C(C)C)NC(=O)[C@H](CS)NC(=O)[C@H]([C@@H](C)O)NC(=O)[C@H](CCC(=O)O)NC(=O)CNC(=O)[C@H](CS)NC(=O)[C@H](C(C)C)NC(=O)[C@@H]2CCCN2C1=O`, the result in test [2] was inactive.

For `CC(C)C[C@H](NC(=O)CN)C(=O)N1CCC[C@H]1C(=O)N[C@H](C(=O)N[C@@H](CS)C(=O)NCC(=O)N[C@@H](CCC(=O)O)C(=O)N[C@H](C(=O)N[C@@H](CS)C(=O)N[C@H](C(=O)NCC(=O)NCC(=O)N[C@H](C(=O)N[C@@H](CS)C(=O)N[C@@H](CC(N)=O)C(=O)N[C@H](C(=O)N1CCC[C@H]1C(=O)NCC(=O)N[C@@H](CS)C(=O)N[C@H](C(=O)N[C@@H](CS)C(=O)N[C@@H](CO)C(=O)N[C@@H](CCC(=O)O)C(=O)N1CCC[C@H]1C(=O)N[C@H](C(=O)N[C@@H](CS)C(=O)N[C@H](C(=O)N[C@@H](CCCNC(=N)N)C(=O)N[C@@H](CC(N)=O)C(=O)O)[C@@H](C)O)C(C)C)[C@@H](C)O)[C@@H](C)O)[C@@H](C)O)C(C)C)[C@@H](C)O)C(C)C`, in test [2], the outcome was inactive.

With `CC(C)C[C@@H]1NC(=O)CNC(=O)[C@H](CCCNC(=N)N)NC(=O)[C@H](CCCNC(=N)N)NC(=O)[C@H]([C@@H](C)O)NC(=O)[C@@H]2CSSC[C@H](NC(=O)CNC(=O)[C@@H]3CCCN3C(=O)[C@H]([C@@H](C)O)NC(=O)[C@@H](N)CC(=O)NC(=O)[C@@H]3CSSC[C@H](NC(=O)[C@H](C(C)C)NC(=O)[C@@H]4CCCN4C1=O)C(=O)NCC(=O)N[C@@H](CO)C(=O)N[C@@H](CCC(=O)O)C(=O)N[C@@H](CCC(=O)O)C(=O)N[C@@H](CO)C(=O)N[C@@H](CCCNC(=N)N)C(=O)N[C@@H](CCCNC(=N)N)C(=O)NCC(=O)N3)C(=O)N[C@@H](CCCNC(=N)N)C(=O)N[C@@H](CCCNC(=N)N)C(=O)N[C@@H](CO)C(=O)N[C@@H](Cc1c[nH]c3ccccc13)C(=O)N1CCC[C@H]1C(=O)N[C@@H](C(C)C)C(=O)N2`, in test [1], the IC50 was found to be 4.3 µM and the Ki was 1.39 µM.
